How the values were obtained:
A. baumannii ATCC 19606 = assay: Time-kill curves; type: cell-based, Acinetobacter baumannii
Method: (§1) Time-kill curves (TKC) determine the in vitro antimicrobial activity of a compound, monitoring the bacterial growth over a certain period of time.
(§2) This assay was performed for two Acinetobacter baumannii strains (a clinical strain and ATCC 19606 strain) and one Pseudomonas aeruginosa ATCC 27853 strain, monitoring its growth during 24 hours at different PLP-3 (SEQ ID NO: 4) concentrations: MIC, 2×MIC, 4×MIC, 8×MIC. Moreover, in each TKC assay a negative and a positive growth control was stablished.
(§3) In different 13MI tubes, a certain concentration of PLP-3 peptide, Mueller-Hinton Broth (MHB, 1214, Condalab) and a fixed inoculum concentration were added. The final inoculum concentration in each tube was […]. Tubes were incubated at 37° C. at 180 rpm during 24 hours. Aliquots of the liquid culture were taken at different times: 0 h, 10 minutes, 30 minutes, 1 h, 2 h, 4 h, 8 h and 24 h. For each taken aliquot, serial dilutions with Phosphate Saline Buffer 1× (PBS 1×) were made and streaked in Luria-Bertani Agar (LB, 1083, Condalab). LB Agar plates were incubated at 37° C. during 18-22 hours. Grown colonies in LB Agar were counted in order to quantify the inoculum in each time period.
(§4) Three biological replicates were performed for each strain, and the mean and standard deviation was determined each time.

[1] = system: A. baumannii 8 clinical strain; assay: Time-kill curves; type: cell-based, Acinetobacter baumannii
Method: as §1, §2, §3, §4

Compound: CC(C)C[C@@H]1NC(=O)[C@H](CCCNC(=N)N)NC(=O)[C@H](CCCNC(=N)N)NC(=O)[C@H](CCCNC(=N)N)NC(=O)[C@H]2CCCN2C(=O)[C@H](CCCNC(=N)N)NC(=O)[C@H](CCCNC(=N)N)NC(=O)[C@H](C(C)C)NC(=O)[C@@H]2CSSC[C@H](NC1=O)C(=O)N[C@@H](Cc1ccccc1)C(=O)N[C@@H](C(C)C)C(=O)N[C@@H](CCCNC(=N)N)C(=O)N1CCC[C@@H]1C(=O)N[C@@H](CCCCN)C(=O)N[C@@H](Cc1ccccc1)C(=O)N[C@@H](C(C)C)C(=O)N[C@@H](C(C)C)C(=O)N2 [PLP-3, cyclo[RRRLCFVRPKFVVCVRRP]]
- log(CFU/mL) Mean (A. baumannii ATCC 19606; 2xMIC (4 μg/mL), 0.00 h): 5.87 log(CFU/mL)
- log(CFU/mL) Mean (A. baumannii ATCC 19606; 2xMIC (4 μg/mL), 0.17 h): 5.54 log(CFU/mL)
- log(CFU/mL) Mean (A. baumannii ATCC 19606; 2xMIC (4 μg/mL), 0.50 h): 4.91 log(CFU/mL)
- log(CFU/mL) Mean (A. baumannii ATCC 19606; 2xMIC (4 μg/mL), 1.00 h): 3.14 log(CFU/mL)
- log(CFU/mL) Mean (A. baumannii ATCC 19606; 2xMIC (4 μg/mL), 2.00 h): 2.18 log(CFU/mL)
- log(CFU/mL) Mean (A. baumannii ATCC 19606; 2xMIC (4 μg/mL), 4.00 h): 2.58 log(CFU/mL)
- log(CFU/mL) Mean (A. baumannii ATCC 19606; 2xMIC (4 μg/mL), 8.00 h): 2.56 log(CFU/mL)
- log(CFU/mL) Mean (A. baumannii ATCC 19606; 2xMIC (4 μg/mL), 24.00 h): 3.30 log(CFU/mL)
- log(CFU/mL) Mean (A. baumannii ATCC 19606; 4xMIC (8 μg/mL), 0.00 h): 5.87 log(CFU/mL)
- log(CFU/mL) Mean (A. baumannii ATCC 19606; 4xMIC (8 μg/mL), 0.17 h): 5.12 log(CFU/mL)
- log(CFU/mL) Mean (A. baumannii ATCC 19606; 4xMIC (8 μg/mL), 0.50 h): 3.79 log(CFU/mL)
- log(CFU/mL) Mean (A. baumannii ATCC 19606; 4xMIC (8 μg/mL), 1.00 h): 0.94 log(CFU/mL)
- log(CFU/mL) Mean (A. baumannii ATCC 19606; 4xMIC (8 μg/mL), 2.00 h): 0.00 log(CFU/mL)
- log(CFU/mL) Mean (A. baumannii ATCC 19606; 4xMIC (8 μg/mL), 4.00 h): 0.00 log(CFU/mL)
- log(CFU/mL) Mean (A. baumannii ATCC 19606; 4xMIC (8 μg/mL), 8.00 h): 0.00 log(CFU/mL)
- log(CFU/mL) Mean (A. baumannii ATCC 19606; 4xMIC (8 μg/mL), 24.00 h): 0.00 log(CFU/mL)
- log(CFU/mL) Mean (A. baumannii ATCC 19606; 8xMIC (16 μg/mL), 0.00 h): 5.87 log(CFU/mL)
- log(CFU/mL) Mean (A. baumannii ATCC 19606; 8xMIC (16 μg/mL), 0.17 h): 3.41 log(CFU/mL)
- log(CFU/mL) Mean (A. baumannii ATCC 19606; 8xMIC (16 μg/mL), 0.50 h): 0.87 log(CFU/mL)
- log(CFU/mL) Mean (A. baumannii ATCC 19606; 8xMIC (16 μg/mL), 1.00 h): 0.00 log(CFU/mL)
- log(CFU/mL) Mean (A. baumannii ATCC 19606; 8xMIC (16 μg/mL), 2.00 h): 0.00 log(CFU/mL)
- log(CFU/mL) Mean (A. baumannii ATCC 19606; 8xMIC (16 μg/mL), 4.00 h): 0.00 log(CFU/mL)
- log(CFU/mL) Mean (A. baumannii ATCC 19606; 8xMIC (16 μg/mL), 8.00 h): 0.00 log(CFU/mL)
- log(CFU/mL) Mean (A. baumannii ATCC 19606; 8xMIC (16 μg/mL), 24.00 h): 0.00 log(CFU/mL)
- log(CFU/mL) Mean (A. baumannii ATCC 19606; MIC (2 μg/mL), 0.00 h): 5.87 log(CFU/mL)
- log(CFU/mL) Mean (A. baumannii ATCC 19606; MIC (2 μg/mL), 0.17 h): 5.85 log(CFU/mL)
- log(CFU/mL) Mean (A. baumannii ATCC 19606; MIC (2 μg/mL), 0.50 h): 5.43 log(CFU/mL)
- log(CFU/mL) Mean (A. baumannii ATCC 19606; MIC (2 μg/mL), 1.00 h): 4.01 log(CFU/mL)
- log(CFU/mL) Mean (A. baumannii ATCC 19606; MIC (2 μg/mL), 2.00 h): 2.39 log(CFU/mL)
- log(CFU/mL) Mean (A. baumannii ATCC 19606; MIC (2 μg/mL), 4.00 h): 3.05 log(CFU/mL)
- log(CFU/mL) Mean (A. baumannii ATCC 19606; MIC (2 μg/mL), 8.00 h): 3.85 log(CFU/mL)
- log(CFU/mL) Mean (A. baumannii ATCC 19606; MIC (2 μg/mL), 24.00 h): 5.17 log(CFU/mL)
- bactericidal or bacteriostatic activity (A. baumannii ATCC 19606; time-kill curves over 24 hours, MIC to 8xMIC): bactericidal effect
- log(CFU/mL) Mean ([1]; 2xMIC (4 μg/mL), 0.00 h): 5.60 log(CFU/mL)
- log(CFU/mL) Mean ([1]; 2xMIC (4 μg/mL), 0.17 h): 5.56 log(CFU/mL)
- log(CFU/mL) Mean ([1]; 2xMIC (4 μg/mL), 0.50 h): 4.92 log(CFU/mL)
- log(CFU/mL) Mean ([1]; 2xMIC (4 μg/mL), 1.00 h): 4.20 log(CFU/mL)
- log(CFU/mL) Mean ([1]; 2xMIC (4 μg/mL), 2.00 h): 2.74 log(CFU/mL)
- log(CFU/mL) Mean ([1]; 2xMIC (4 μg/mL), 4.00 h): 1.89 log(CFU/mL)
- log(CFU/mL) Mean ([1]; 2xMIC (4 μg/mL), 8.00 h): 1.05 log(CFU/mL)
- log(CFU/mL) Mean ([1]; 2xMIC (4 μg/mL), 24.00 h): 1.49 log(CFU/mL)
- log(CFU/mL) Mean ([1]; 4xMIC (8 μg/mL), 0.00 h): 5.60 log(CFU/mL)
- log(CFU/mL) Mean ([1]; 4xMIC (8 μg/mL), 0.17 h): 5.30 log(CFU/mL)
- log(CFU/mL) Mean ([1]; 4xMIC (8 μg/mL), 0.50 h): 4.11 log(CFU/mL)
- log(CFU/mL) Mean ([1]; 4xMIC (8 μg/mL), 1.00 h): 2.74 log(CFU/mL)
- log(CFU/mL) Mean ([1]; 4xMIC (8 μg/mL), 2.00 h): 0.00 log(CFU/mL)
- log(CFU/mL) Mean ([1]; 4xMIC (8 μg/mL), 4.00 h): 0.00 log(CFU/mL)
- log(CFU/mL) Mean ([1]; 4xMIC (8 μg/mL), 8.00 h): 0.00 log(CFU/mL)
- log(CFU/mL) Mean ([1]; 4xMIC (8 μg/mL), 24.00 h): 0.00 log(CFU/mL)

Reference: patent US20260242418A1, “CYCLIC PEPTIDES WITH ANTIBACTERIAL ACTIVITY AGAINST MULTIDRUG RESISTANT (MDR) PATHOGENS” (priority 2022, published 2026)
